Values quoted from earlier work as cited in patent US10925890B2, “Use of dextran sulfate” (TX MEDIC AB, priority 2014, dated 2021).

Test system: angiogenesis
Conditions: cited from earlier work

| Substance | Effect on angiogenesis (U.S. Pat. No. 5,135,920) | Effect on angiogenesis in vivo (Glycobiology 3, 567-573 (1993), Pathophysiology of Haemostasis and Thrombosis 23, 141-149 (1993)) |
| --- | --- | --- |
| dextran sulfate | angiostatic | – |
| heparin | – | inhibited angiogenesis |
